Measured values: PMC8765437, “GSK3640254 Is a Novel HIV-1 Maturation Inhibitor with an Optimized Virology Profile” (Antimicrobial Agents and Chemotherapy, 2022)
Like-named read-outs stand apart in the source and are kept apart here.

Legend:
[1] = tested on: RepRlucNL4-3GagP373S variants; assay: Virus breakthrough in MT-2 cell culture in the presence of compound; type: cell-based, HIV-1; conditions: for Days to virus breakthrough, Expt 1 / Days to virus breakthrough, Expt 2: drug 80 nM
Experimental: The ability of virus to break through and grow in the presence of an inhibitory concentration of a compound in cell culture provides an indication of its resistance barrier. […] Experiments were performed in duplicate at a low or high MOI (0.005 and 0.05) and at a drug concentration of 80 nM with RepRlucP373S WT virus or SDM-containing virus with known Gag polymorphisms (Table 6).
Cultures were incubated at 37°C and 5% CO2 until ∼100% cytopathic effect (CPE) was observed. […] At each passage, 100 μL of culture supernatant was collected and stored at −20°C. When a culture reached 100% CPE, it was terminated, and supernatants were harvested for subsequent virus population sequencing.

HIV-2 strains = assay: HIV-2 strains, reverse transcriptase activity in MT-2 cells; type: cell-based
Experimental: (§1) Virus yields were measured in dose-response experiments by either luciferase activity in human T-cells (CEM-NKR-CCR5-Luc), extracellular reverse transcriptase activity in MT-2 cells (T-tropic viruses), or extracellular p24 antigen in PM1 cells (M-tropic viruses).
Multiple-cycle assays using recombinant viruses or clinical isolates were used to assess MI antiviral activity as described previously ([10]). pNLRepRlucP373S (the P373S change is in the Gag gene and converts an outlier polymorphism in the NL4-3 gene to the prevalent amino acid in the population) plasmids containing SDMs in Gag or gag/pr regions from clinical isolates were transfected into HEK 293T cells, and the supernatant containing recombinant virus was harvested after 4 to 5 days. Virus was used to infect MT-2 cells in the presence of a 3-fold serially diluted compound at a final dimethyl sulfoxide (DMSO) concentration of 1%. The inocula of the reporter viruses were determined based on the luciferase activity detected on day 4 postinfection. The MOI (ratio of infectious virions to target cells) of reporter-free laboratory strains and clinical isolates was 0.005, as derived from a tissue culture infectious dose study. Clinical isolates or reporter-free viruses were examined in the reporter CEM-NKR-CCR5-Luc cells or PBMCs at MOIs ranging from 0.005 to 0.01. Each infection started with a drug-free preincubation of the cell-virus mixtures, performed at 37°C and 5% CO2 for either 1 h at 2 times the final cell density (reporter viruses) or 1 h (reporter-free laboratory strains) or 3 h (clinical isolates) using cell pellets in 0.5 mL of medium. […] Virus growth was determined on days 4 to 5 postinfection for reporter variants or days 5 to 11 for the other viruses. The reporter viruses were detected by a luciferase assay according to manufacturer protocols (Brite-Glo luciferase kit [Promega] for CEM-NKR-CCR5-Luc cells and Dual-Luciferase Reporter 1000 assay system [Promega] for the other cells), and luminescence was detected on a Wallac Trilux. The growth of clinical isolates in PBMCs was quantitated by reverse transcriptase activity in a 96-well scintillation proximity assay (SPA). […] Luminescence was detected on a Wallac Trilux programmed for tritium counting with SPA beads in opaque plates. The growth of the reporter-free laboratory M-tropic strains and clinical isolates was monitored by a p24 enzyme-linked immunosorbent assay (ELISA; PerkinElmer Life Sciences, Waltham, MA) performed on culture supernatants.
(§2) Maximal percent inhibition values were calculated as MPI = 100 – (mean signals at the 2 highest concentrations of compound/mean signal of 2 no-drug control wells) × 100.

HIV-1 laboratory strains = assay: Laboratory strains, reverse transcriptase activity in MT-2 cells; type: cell-based; conditions: Human immunodeficiency virus 1, NL43, MT2, NL4-3; second value in cell; read-out: EC50 (converted)
Experimental: as §1
(§3) Multiple-cycle assays using recombinant viruses or clinical isolates were used to assess MI antiviral activity as described previously ([10]). pNLRepRlucP373S (the P373S change is in the Gag gene and converts an outlier polymorphism in the NL4-3 gene to the prevalent amino acid in the population) plasmids containing SDMs in Gag or gag/pr regions from clinical isolates were transfected into HEK 293T cells, and the supernatant containing recombinant virus was harvested after 4 to 5 days. Virus was used to infect MT-2 cells in the presence of a 3-fold serially diluted compound at a final dimethyl sulfoxide (DMSO) concentration of 1%. The inocula of the reporter viruses were determined based on the luciferase activity detected on day 4 postinfection. The MOI (ratio of infectious virions to target cells) of reporter-free laboratory strains and clinical isolates was 0.005, as derived from a tissue culture infectious dose study. Clinical isolates or reporter-free viruses were examined in the reporter CEM-NKR-CCR5-Luc cells or PBMCs at MOIs ranging from 0.005 to 0.01. Each infection started with a drug-free preincubation of the cell-virus mixtures, performed at 37°C and 5% CO2 for either 1 h at 2 times the final cell density (reporter viruses) or 1 h (reporter-free laboratory strains) or 3 h (clinical isolates) using cell pellets in 0.5 mL of medium. After preincubation, cell-virus mixtures were added to compound-containing 96-well plates for a final cell density of either 10,000 (MT-2 cells for reporter viruses), 20,000 (MT-2 and PM1 cells for reporter-free laboratory strains), 200,000 (PBMCs for clinical isolates), or 500,000 (CEM-NKR-CCR5-Luc for reporter-free laboratory strains) cells per well. The CEM-NKR-CCR5-Luc cell assay was performed in the presence of Polybrene (10 μg/mL). Virus growth was determined on days 4 to 5 postinfection for reporter variants or days 5 to 11 for the other viruses. The reporter viruses were detected by a luciferase assay according to manufacturer protocols (Brite-Glo luciferase kit [Promega] for CEM-NKR-CCR5-Luc cells and Dual-Luciferase Reporter 1000 assay system [Promega] for the other cells), and luminescence was detected on a Wallac Trilux. The growth of clinical isolates in PBMCs was quantitated by reverse transcriptase activity in a 96-well scintillation proximity assay (SPA). Twenty microliters of culture supernatants was mixed with 40 μL of reaction cocktail (62.5 mM Tris-HCl [pH 7.8], 100 mM KCl, 0.0625% NP-40, 2.5 mM dithiothreitol [DTT], 6.25 mM MgCl2, 1 mM EGTA, 6.25 μg/mL of poly rA, 2.5 μg/mL of streptavidin SPA beads prebound with biotinylated-dT12-18, and 1 μCi of [^3H]TTP). Mixtures were incubated at 37°C for ∼3 h and quenched with 100 μl of 0.25 M EDTA per well. Luminescence was detected on a Wallac Trilux programmed for tritium counting with SPA beads in opaque plates. The growth of the reporter-free laboratory M-tropic strains and clinical isolates was monitored by a p24 enzyme-linked immunosorbent assay (ELISA; PerkinElmer Life Sciences, Waltham, MA) performed on culture supernatants.
as §2

HIV-1 clinical isolates = assay: Inhibition of clinical isolates in PBMCs; type: cell-based; conditions: Human immunodeficiency virus 1, PBMC
Experimental: Human peripheral blood mononuclear cells (PBMCs) were infected with isolates, and virus yields were measured by determining extracellular p24 protein levels (Table 4). […] These isolates were also examined in the NLRepRlucP373S virus by replacement of the gag/pr genes with those from these clinical isolates.
Peripheral blood mononuclear cells (BioReclamation, Westbury, NY) were cultured at 37°C and 5% CO2 in RPMI 1640 medium with 20% fetal bovine serum (Gibco Laboratories), 100 units/mL of penicillin G, 100 units/mL of streptomycin (Gibco Laboratories), and 1 ng/mL of recombinant human interleukin-2 (Invitrogen, Carlsbad, CA). Peripheral blood mononuclear cells were stimulated with 2 μg/mL of phytohemagglutinin (Sigma-Aldrich, St. Louis, MO) for 2 days before infection with HIV-1 clinical isolates.
as §3

What does the source list for `C=C(C)[C@@H]1CC[C@]2(NCCN3CCS(=O)(=O)CC3)CC[C@]3(C)[C@H](CC[C@@H]4[C@@]5(C)CC=C(C6=CC[C@@](CF)(C(=O)O)CC6)C(C)(C)[C@@H]5CC[C@]43C)[C@@H]12` [GSK’254]?
Days to virus breakthrough, Expt 1 ([1]; High MOI (0.05), V362I): 11 days; Days to virus breakthrough, Expt 2 ([1]; High MOI (0.05), V362I): 11 days; Days to virus breakthrough, Expt 1 ([1]; High MOI (0.05), V370A): >46 days; Days to virus breakthrough, Expt 2 ([1]; High MOI (0.05), V370A): >46 days; Days to virus breakthrough, Expt 1 ([1]; High MOI (0.05), V370M): 21 days; Days to virus breakthrough, Expt 2 ([1]; High MOI (0.05), V370M): 11 days; Days to virus breakthrough, Expt 1 ([1]; High MOI (0.05), Wild type): >46 days; Days to virus breakthrough, Expt 2 ([1]; High MOI (0.05), Wild type): 18 days; Days to virus breakthrough, Expt 1 ([1]; Low MOI (0.005), V362I): 46 days; Days to virus breakthrough, Expt 2 ([1]; Low MOI (0.005), V362I): >46 days; Days to virus breakthrough, Expt 1 ([1]; Low MOI (0.005), V370A): >46 days; Days to virus breakthrough, Expt 2 ([1]; Low MOI (0.005), V370A): 11 days; Days to virus breakthrough, Expt 1 ([1]; Low MOI (0.005), V370M): >46 days; Days to virus breakthrough, Expt 2 ([1]; Low MOI (0.005), V370M): 18 days; Days to virus breakthrough, Expt 1 ([1]; Low MOI (0.005), Wild type): 14 days; Days to virus breakthrough, Expt 2 ([1]; Low MOI (0.005), Wild type): >46 days; samples exhibiting breakthrough ([1]; low and high MOIs, 80 nM, over the 46-day experiment): 9 of 16; EC50 (HIV-2 strains; Human immunodeficiency virus 2, MT2, HIV-2 287): > 1390 nM; EC50 (HIV-2 strains; Human immunodeficiency virus 2, MT2, HIV-2 ROD, second value in cell): 2.5 nM; EC50 (HIV-1 laboratory strains): 7.3 nM; EC50 (HIV-1 clinical isolates; read-out: Mean EC50, subtype A 92UG037): 5 nM; EC50 (HIV-1 clinical isolates; read-out: Mean EC50, subtype A 93RW029): 3 nM; EC50 (HIV-1 clinical isolates; read-out: Mean EC50, subtype A 93RW034): 1 nM; EC50 (HIV-1 clinical isolates; read-out: Mean EC50, subtype AE 93TH023): 1 nM; EC50 (HIV-1 clinical isolates; read-out: Mean EC50, subtype AE 93TH053): 5 nM; EC50 (HIV-1 clinical isolates; read-out: Mean EC50, subtype AE CMU010): 3 nM; EC50 (HIV-1 clinical isolates; read-out: Mean EC50, subtype B 92BR003): 2 nM; EC50 (HIV-1 clinical isolates; read-out: Mean EC50, subtype B 92BR018): 77 nM; EC50 (HIV-1 clinical isolates; read-out: Mean EC50, subtype B 93BR008): 50 nM; EC50 (HIV-1 clinical isolates; read-out: Mean EC50, subtype B 93BR009): 1 nM; EC50 (HIV-1 clinical isolates; read-out: Mean EC50, subtype B 93BR013): 3 nM; EC50 (HIV-1 clinical isolates; read-out: Mean EC50, subtype B 93BR017): 1 nM; EC50 (HIV-1 clinical isolates; read-out: Mean EC50, subtype B 93US143): 2 nM; EC50 (HIV-1 clinical isolates; read-out: Mean EC50, subtype C 93MW960): 9 nM; EC50 (HIV-1 clinical isolates; read-out: Mean EC50, subtype C 97ZA012): 3 nM; EC50 (HIV-1 clinical isolates; read-out: Mean EC50, subtype C 98BR004): 1 nM; EC50 (HIV-1 clinical isolates; read-out: Mean EC50, subtype C 10215-6): 1 nM; EC50 (HIV-1 clinical isolates; read-out: Mean EC50, subtype C 20706-3): 4 nM; EC50 (HIV-1 clinical isolates; read-out: Mean EC50, subtype C MJ4): 3 nM; EC50 (HIV-1 clinical isolates; read-out: mean EC50, subtype A/AE isolates): 3 nM; EC50 (HIV-1 clinical isolates; read-out: mean EC50, subtype B isolates): 19 nM; EC50 (HIV-1 clinical isolates; read-out: mean EC50, subtype C isolates): 3.5 nM
